Test: Canine imaging and biodistribution model
Settings: for route of excretion: i.v. infusion, gamma camera images and biodistribution
Protocol: A canine imaging and biodistribution model was used to evaluate the radiopharmaceuticals of Examples 5 and 7.
Adult beagle dogs of either sex (9-13 kg) were anesthetized with pentobarbital sodium (35 mg/kg,i.v.) and ventilated with room air via an endotracheal tube (12 strokes/min, 25 ml/kg). For arterial pressure determination, the right femoral artery was cannulated with a saline-filled polyethylene catheter (PE-240) and connected to a Statham pressure transducer (P23ID; Oxnard, Calif.). Mean arterial blood pressure was determined via damping the pulsatile pressure signal. Heart rate was monitored using a cardiotachometer (Biotach, Grass Quincy, Mass.) triggered from a lead II electrocardiogram generated by limb leads. All parameters were monitored continuously on a polygraph recorder (model 7D Grass) at a paper speed of 10 mm/min or 25 mm/sec. The right femoral vein was cannulated (PE-240) for drug administration. A control blood sample was collected for hematology analysis on an MCA210 (APTT, PT), K1000 (cell number), and Chrono Log Aggregometer (collagen induced platelet aggregation). Blood samples were also collected immediately after infusion, 30, 60, and 120 minutes post infusion. Samples of blood were retained for blood clearance determination at control, immediately following infusion, 15, 30, 60, 90, and 120 minutes post infusion. Administration of test article was given no earlier than 20 minutes post surgery. The test article was administered as a 10 cc slow infusion over 5 minutes. Images were acquired by a gamma camera over 5 minutes and taken during infusion, 5, 15, 30, 60, 90, 120 minutes post infusion (Digital Dyna Camera, Picker International, Cleveland, Ohio). At the end of the protocol the animal was euthanized with an overdose of pentobarbital and a biodistribution performed. The samples collected for biodistribution (muscle, liver, kidney, bile, spleen, heart, lung thyroid, and urine) and the blood clearance samples were weighed and the amount of activity determined via a gamma well counter (LKB 1282, Wallac Inc).

[1] = at 120 min post-injection, beagle dogs

Substance | route of excretion (anesthetized adult beagle dogs) | clearance from the blood (anesthetized adult beagle dogs, slow i.v. infusion over 5 minutes, blood samples up to 120 minutes post infusion) | portion of the radiopharmaceutical located in the bladder [1] | radiopharmaceutical remaining in the blood, the muscle or other organs [1] | clearance from the blood (dog, in vivo, iv)
[^99mTc (HYNICamide) (tricine) (TPPTS)] [Example 7] | predominantly renal | rapid clearance | vast majority | very little remaining | –
[^99mTc (HYPY) (tricine) (TFP)] [Example 5] | predominantly hepatobiliary | – | – | – | Rapid blood clearance

Source: US6403054B1, “Ternary ligand complexes useful as radiopharmaceuticals” (Bristol-Myers Squibb Pharma Company, priority 1997, dated 2002)
